Data reported in the NIST ThermoML archive (doi:10.1016/j.jct.2010.08.019).
± gives the expanded uncertainty stated by the source.

Assay: xn = mol fraction of the nth substance listed
Conditions: for surface tension liquid-gas: Wilhelmy-plate method; for viscosity / mass density: 101 kPa, Liquid; for viscosity: Falling or rolling sphere viscometry; for mass density: Vibrating tube method

C1CCOCC1 [tetrahydropyran] + CC(C)O
Conditions	mass density [kg/m3]	surface tension liquid-gas [mN/m]	viscosity [mPa·s]
293.15 K, x2 = 0	884.27 ± 0.23	27.5 ± 0.4	0.86 ± 0.011
293.15 K, x2 = 0.0501	879.89 ± 0.23	27.2 ± 0.4	0.852 ± 0.011
293.15 K, x2 = 0.0999	875.5 ± 0.22	26.9 ± 0.4	0.845 ± 0.011
293.15 K, x2 = 0.1499	871.09 ± 0.21	26.6 ± 0.4	0.849 ± 0.011
293.15 K, x2 = 0.2003	866.62 ± 0.21	26.3 ± 0.4	0.85 ± 0.011
293.15 K, x2 = 0.2506	862.13 ± 0.2	26 ± 0.4	0.855 ± 0.011
293.15 K, x2 = 0.2999	857.7 ± 0.2	25.7 ± 0.4	0.864 ± 0.011
293.15 K, x2 = 0.35	853.13 ± 0.19	25.4 ± 0.4	0.877 ± 0.011
293.15 K, x2 = 0.3999	848.52 ± 0.19	25 ± 0.4	0.899 ± 0.011
293.15 K, x2 = 0.4499	843.87 ± 0.18	24.7 ± 0.4	0.922 ± 0.011
293.15 K, x2 = 0.5001	839.07 ± 0.18	24.4 ± 0.4	0.947 ± 0.011
293.15 K, x2 = 0.5502	834.22 ± 0.17	24 ± 0.4	0.983 ± 0.011
293.15 K, x2 = 0.6001	829.28 ± 0.17	23.7 ± 0.4	1.032 ± 0.012
293.15 K, x2 = 0.6499	824.23 ± 0.17	23.4 ± 0.4	1.095 ± 0.012
293.15 K, x2 = 0.7001	819.03 ± 0.16	23.1 ± 0.4	1.164 ± 0.012
293.15 K, x2 = 0.7499	813.78 ± 0.16	22.7 ± 0.4	1.256 ± 0.013
293.15 K, x2 = 0.8	808.34 ± 0.16	22.4 ± 0.4	1.378 ± 0.014
293.15 K, x2 = 0.8501	802.8 ± 0.16	22.1 ± 0.4	1.535 ± 0.015
293.15 K, x2 = 0.9001	797.15 ± 0.15	21.9 ± 0.4	1.739 ± 0.016
293.15 K, x2 = 0.9499	791.36 ± 0.15	21.6 ± 0.4	2.013 ± 0.018
303.15 K, x2 = 0	874.07 ± 0.23	26.2 ± 0.4	0.749 ± 0.01
303.15 K, x2 = 0.0502	869.6 ± 0.23	26 ± 0.4	0.737 ± 0.01
303.15 K, x2 = 0.1001	865.24 ± 0.22	25.7 ± 0.4	0.729 ± 0.01
303.15 K, x2 = 0.1501	860.87 ± 0.22	25.4 ± 0.4	0.728 ± 0.01
303.15 K, x2 = 0.1998	856.52 ± 0.21	25.1 ± 0.4	0.725 ± 0.01
303.15 K, x2 = 0.2499	852.09 ± 0.2	24.8 ± 0.4	0.729 ± 0.01
303.15 K, x2 = 0.3	847.66 ± 0.2	24.5 ± 0.4	0.737 ± 0.01
303.15 K, x2 = 0.3499	843.17 ± 0.19	24.2 ± 0.4	0.75 ± 0.01
303.15 K, x2 = 0.4001	838.59 ± 0.19	23.9 ± 0.4	0.76 ± 0.01
303.15 K, x2 = 0.4501	833.98 ± 0.18	23.6 ± 0.4	0.779 ± 0.01
303.15 K, x2 = 0.5001	829.29 ± 0.18	23.3 ± 0.4	0.8 ± 0.01
303.15 K, x2 = 0.55	824.54 ± 0.18	22.9 ± 0.4	0.825 ± 0.01
303.15 K, x2 = 0.6	819.65 ± 0.17	22.6 ± 0.4	0.861 ± 0.011
303.15 K, x2 = 0.65	814.69 ± 0.17	22.3 ± 0.4	0.905 ± 0.011
303.15 K, x2 = 0.6999	809.62 ± 0.17	22 ± 0.4	0.958 ± 0.011
303.15 K, x2 = 0.7499	804.47 ± 0.16	21.7 ± 0.4	1.021 ± 0.011
303.15 K, x2 = 0.8001	799.17 ± 0.16	21.4 ± 0.4	1.108 ± 0.012
303.15 K, x2 = 0.85	793.77 ± 0.16	21.2 ± 0.4	1.214 ± 0.013
303.15 K, x2 = 0.8998	788.25 ± 0.16	20.9 ± 0.4	1.356 ± 0.014
303.15 K, x2 = 0.9499	782.59 ± 0.16	20.6 ± 0.4	1.533 ± 0.015
313.15 K, x2 = 0	863.76 ± 0.47	25.1 ± 0.4	0.658 ± 0.01
313.15 K, x2 = 0.05	859.32 ± 0.46	24.9 ± 0.4	0.645 ± 0.01
313.15 K, x2 = 0.1	854.97 ± 0.45	24.6 ± 0.4	0.639 ± 0.01
313.15 K, x2 = 0.1501	850.64 ± 0.44	24.3 ± 0.4	0.634 ± 0.01
313.15 K, x2 = 0.2	846.27 ± 0.42	24.1 ± 0.4	0.633 ± 0.01
313.15 K, x2 = 0.2499	841.92 ± 0.41	23.8 ± 0.4	0.635 ± 0.01
313.15 K, x2 = 0.2997	837.55 ± 0.39	23.5 ± 0.4	0.638 ± 0.01
313.15 K, x2 = 0.3499	833.09 ± 0.38	23.2 ± 0.4	0.646 ± 0.01
313.15 K, x2 = 0.4	828.58 ± 0.36	22.9 ± 0.4	0.656 ± 0.01
313.15 K, x2 = 0.4504	823.98 ± 0.34	22.6 ± 0.4	0.667 ± 0.01
313.15 K, x2 = 0.5001	819.37 ± 0.33	22.3 ± 0.4	0.682 ± 0.01
313.15 K, x2 = 0.55	814.68 ± 0.31	22 ± 0.4	0.704 ± 0.01
313.15 K, x2 = 0.5999	809.9 ± 0.29	21.7 ± 0.4	0.725 ± 0.01
313.15 K, x2 = 0.65	805.04 ± 0.28	21.4 ± 0.4	0.758 ± 0.01
313.15 K, x2 = 0.7001	800.07 ± 0.26	21.1 ± 0.4	0.796 ± 0.01
313.15 K, x2 = 0.7502	794.95 ± 0.24	20.8 ± 0.4	0.844 ± 0.011
313.15 K, x2 = 0.7999	789.8 ± 0.22	20.6 ± 0.4	0.901 ± 0.011
313.15 K, x2 = 0.85	784.49 ± 0.2	20.3 ± 0.4	0.976 ± 0.011
313.15 K, x2 = 0.8998	779.1 ± 0.18	20.1 ± 0.4	1.069 ± 0.012
313.15 K, x2 = 0.9498	773.58 ± 0.17	19.8 ± 0.4	1.187 ± 0.012
323.15 K, x2 = 0	666.8 ± 0.83	23.8 ± 0.4	0.565 ± 0.009
323.15 K, x2 = 0.05	–	23.5 ± 0.4	0.562 ± 0.009
323.15 K, x2 = 0.0501	667.65 ± 0.8	–	–
323.15 K, x2 = 0.1	669.08 ± 0.78	23.3 ± 0.4	0.558 ± 0.009
323.15 K, x2 = 0.15	670.98 ± 0.76	–	–
323.15 K, x2 = 0.1501	–	23.1 ± 0.4	0.553 ± 0.009
323.15 K, x2 = 0.1998	673.08 ± 0.73	–	–
323.15 K, x2 = 0.2	–	22.8 ± 0.4	0.55 ± 0.009
323.15 K, x2 = 0.2499	–	22.6 ± 0.4	0.55 ± 0.009
323.15 K, x2 = 0.25	675.42 ± 0.7	–	–
323.15 K, x2 = 0.2997	–	22.3 ± 0.4	0.553 ± 0.009
323.15 K, x2 = 0.3	677.99 ± 0.68	–	–
323.15 K, x2 = 0.3499	–	22 ± 0.4	0.557 ± 0.009
323.15 K, x2 = 0.35	680.86 ± 0.65	–	–
323.15 K, x2 = 0.4	683.93 ± 0.62	21.8 ± 0.4	0.563 ± 0.009
323.15 K, x2 = 0.4499	687.34 ± 0.58	–	–
323.15 K, x2 = 0.4504	–	21.5 ± 0.4	0.571 ± 0.009
323.15 K, x2 = 0.5	691.07 ± 0.55	–	–
323.15 K, x2 = 0.5001	–	21.2 ± 0.4	0.582 ± 0.009
323.15 K, x2 = 0.5501	695.17 ± 0.52	20.9 ± 0.4	0.596 ± 0.009
323.15 K, x2 = 0.6	699.74 ± 0.48	20.7 ± 0.4	0.615 ± 0.009
323.15 K, x2 = 0.65	704.78 ± 0.44	20.4 ± 0.4	0.635 ± 0.01
323.15 K, x2 = 0.6999	–	20.1 ± 0.4	0.661 ± 0.01
323.15 K, x2 = 0.7	710.22 ± 0.4	–	–
323.15 K, x2 = 0.7499	716.22 ± 0.36	–	–
323.15 K, x2 = 0.7502	–	19.9 ± 0.4	0.697 ± 0.01
323.15 K, x2 = 0.7999	722.88 ± 0.32	–	–
323.15 K, x2 = 0.8002	–	19.6 ± 0.4	0.739 ± 0.01
323.15 K, x2 = 0.85	730.48 ± 0.28	–	–
323.15 K, x2 = 0.8501	–	19.4 ± 0.4	0.79 ± 0.01
323.15 K, x2 = 0.8998	–	19.2 ± 0.4	0.85 ± 0.011
323.15 K, x2 = 0.9	738.82 ± 0.23	–	–
323.15 K, x2 = 0.95	748.16 ± 0.19	–	–
323.15 K, x2 = 0.9501	–	19 ± 0.4	0.927 ± 0.011
